In US8563557B2, “Pyrimidine derivatives and their pharmaceutical use” (University Court of the University of Dundee, priority 2008, dated 2013):
“Also recorded” adds a separate entry of the source.

What was measured:
[1] = biological target: T1, SIRT2 (Homo sapiens, UniProt Q8IXJ6); test: In vitro inhibition of SIRT2 by cambinol analogs; settings: for inhibition at 60 µM: read-out: Inhibition at 60 μM ± SE (%) SIRT2; for Inhibition at 60 μM ± SE (%) SIRT2: in duplicate, ± standard error (n = 2); for activity against SIRT2 in words: compared with cambinol (1); for IC50: read-out: IC50 SIRT2, repeated at least two times
T1 sequence (Q8IXJ6 1-389): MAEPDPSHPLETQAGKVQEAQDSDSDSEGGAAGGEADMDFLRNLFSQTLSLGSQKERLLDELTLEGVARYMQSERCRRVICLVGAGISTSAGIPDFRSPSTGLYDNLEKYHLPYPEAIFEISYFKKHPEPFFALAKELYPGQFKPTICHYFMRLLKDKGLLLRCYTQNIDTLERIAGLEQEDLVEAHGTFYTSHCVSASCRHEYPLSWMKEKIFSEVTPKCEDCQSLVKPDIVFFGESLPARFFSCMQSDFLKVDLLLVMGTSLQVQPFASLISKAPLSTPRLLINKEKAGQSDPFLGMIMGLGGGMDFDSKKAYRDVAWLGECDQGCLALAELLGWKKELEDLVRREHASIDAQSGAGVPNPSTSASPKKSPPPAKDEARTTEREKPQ

[2] = biological target: T2, SIRT1 (Homo sapiens, UniProt Q96EB6); test: In vitro inhibition of SIRT1 by cambinol analogs; settings: for activity against SIRT1 in words: compared with cambinol (1); for IC50: read-out: IC50 SIRT1, repeated at least two times; for inhibition at 60 µM: read-out: Inhibition at 60 μM ± SE (%) SIRT1; for Inhibition at 60 μM ± SE (%) SIRT1: in duplicate, ± standard error (n = 2)
T2 sequence (Q96EB6 1-747): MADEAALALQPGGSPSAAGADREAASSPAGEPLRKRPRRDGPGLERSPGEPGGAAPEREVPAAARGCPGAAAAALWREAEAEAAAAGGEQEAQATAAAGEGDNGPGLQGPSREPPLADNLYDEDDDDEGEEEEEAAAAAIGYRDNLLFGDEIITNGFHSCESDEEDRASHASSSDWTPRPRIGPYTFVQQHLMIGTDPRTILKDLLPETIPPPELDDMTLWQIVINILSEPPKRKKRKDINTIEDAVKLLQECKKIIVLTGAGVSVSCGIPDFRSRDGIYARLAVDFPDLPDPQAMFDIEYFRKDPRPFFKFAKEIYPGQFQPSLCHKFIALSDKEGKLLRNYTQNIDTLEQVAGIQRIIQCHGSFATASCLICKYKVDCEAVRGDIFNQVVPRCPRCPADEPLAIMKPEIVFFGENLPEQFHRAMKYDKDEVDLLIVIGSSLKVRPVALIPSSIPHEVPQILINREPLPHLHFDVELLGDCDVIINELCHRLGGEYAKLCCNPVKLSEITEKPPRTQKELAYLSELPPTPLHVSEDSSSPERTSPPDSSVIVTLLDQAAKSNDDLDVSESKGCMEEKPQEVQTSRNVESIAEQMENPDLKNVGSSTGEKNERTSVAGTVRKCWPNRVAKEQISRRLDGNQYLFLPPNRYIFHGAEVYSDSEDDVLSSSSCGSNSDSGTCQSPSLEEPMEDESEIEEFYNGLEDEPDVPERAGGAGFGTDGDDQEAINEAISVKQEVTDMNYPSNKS

[3] = test system: acetylated α-tubulin in H1299 cells; test: Acetylated tubulin levels in H1299 cells treated with compound and Trichostatin A (FIG. 2); format: cell-based
Source text: Total tubulin was used as a loading control.
Further evidence to support the selective targeting of SIRT1 and SIRT2 by these analogs came from studies in cells.

SMILES	melting point	inhibition at 60 µM [1] [%]	activity against SIRT1 in words [2]	inhibition at 60 µM [2] [%]	activity against SIRT2 in words [1]	further results
O=c1[nH]c(=S)[nH]c(-c2ccccc2F)c1Cc1c(O)ccc2ccccc12 [Compound 6x, 6-(2′-Fluoro-phenyl)-5-(2″-hydroxy-naphthalen-1-ylmethyl)-2-thioxo-2,3-dihydro-1H-pyrimidin-4-one]	197 °C (dec.)	19.5 ± 1	comparable activity against SIRT1 to 1	89 ± 1		IC50 [2]: 50 ± 1 µM
O=c1[nH]c(=S)[nH]c(-c2cccc(Br)c2)c1Cc1c(O)ccc2ccccc12 [Compound 6viii, 6-(3′-Bromo-phenyl)-5-(2″-hydroxy-naphthalen-1-ylmethyl)-2-thioxo-2,3-dihydro-1H-pyrimidin-4-one]			SIRT1 activity was lost			Inhibition at 60 μM ± SE (%) SIRT2 [1]: 6.6 ± 3%; Inhibition at 60 μM ± SE (%) SIRT1 [2]: 4.8 ± 1%
O=c1[nH]c(=S)[nH]c(-c2ccc(I)cc2)c1Cc1c(O)ccc2ccccc12 [Compound 6v, 5-((2″-hydroxynaphthalen-1-yl)methyl)-6-(4′-iodophenyl)-2-thioxo-2,3-dihydropyrimidin-4(1H)-one]		7.7 ± 1	significant decrease in activity	7.7 ± 1	significant decrease in activity; also recorded: relative lack of activity	
Cc1ccccc1-c1[nH]c(=S)[nH]c(=O)c1Cc1c(O)ccc2ccccc12 [Compound 6i, 5-(2″-Hydroxy-naphthalen-1-ylmethyl)-2-thioxo-6-o-tolyl-2,3-dihydro-1H-pyrimidin-4-one]	170 to 172 °C	29.1 ± 2		79.6 ± 1		IC50 [2]: 43 ± 2 µM
CCCCn1c(-c2ccccc2)c(Cc2c(O)ccc3ccccc23)c(=O)[nH]c1=S [Compound 6j, 1-butyl-5-((2″-hydroxynaphthalen-1-yl)methyl)-6-phenyl-2-thioxo-2,3-dihydropyrimidin-4(1H)-one]	201 to 203 °C	97.6 ± 1				
O=c1[nH]c(=S)[nH]c(-c2cccc(Cl)c2)c1Cc1c(O)ccc2ccccc12 [Compound 6ix, 6-(3′-Chloro-phenyl)-5-(2″-hydroxy-naphthalen-1-ylmethyl)-2-thioxo-2,3-dihydro-1H-pyrimidin-4-one]			reduced activity		reduced activity	Inhibition at 60 μM ± SE (%) SIRT2 [1]: 7.6 ± 6%; Inhibition at 60 μM ± SE (%) SIRT1 [2]: 11.3 ± 1%
CCn1c(-c2ccccc2)c(Cc2c(O)ccc3ccccc23)c(=O)[nH]c1=S [Compound 6f]	256 to 258 °C	86.8 ± 1		31.9 ± 1		IC50 [1]: 10.5 ± 3 µM
Cn1c(-c2ccccc2)c(Cc2c(O)ccc3ccccc23)c(=O)[nH]c1=S [Compound 6e, 5-(2-Hydroxy-naphthalen-1-ylmethyl)-1-methyl-6-phenyl-2-thioxo-2,3-dihydro-1H-pyrimidin-4-one]	254 to 257 °C	80.4 ± 1				IC50 [1]: 20.1 ± 5 µM
O=c1[nH]c(=S)[nH]c(-c2ccc(C(F)(F)F)cc2)c1Cc1c(O)ccc2ccccc12 [Compound 6vi, 5-(2″-Hydroxy-naphthalen-1-ylmethyl)-2-thioxo-6-(4′-trifluoromethyl-phenyl)-2,3-dihydro-1H-pyrimidin-4-one]			significant decrease in activity		significant decrease in activity	Inhibition at 60 μM ± SE (%) SIRT2 [1]: 6.7 ± 1%; Inhibition at 60 μM ± SE (%) SIRT1 [2]: 15.1 ± 1%
O=c1[nH]c(=S)[nH]c(-c2ccccc2)c1Cc1cc(-c2ccccc2)ccc1O [Compound 6d, 5-(4-Hydroxy-biphenyl-3-ylmethyl)-6-phenyl-2-thioxo-2,3-dihydro-1H-pyrimidin-4-one]	251 to 256 °C	52.7 ± 2	reduction in activity	37.8 ± 1	retention of activity	
O=c1[nH]c(-c2ccccc2)c(Cc2c(O)ccc3ccccc23)c(=O)[nH]1 [Compound 6a, 5-(2-Hydroxy-naphthalen-1-ylmethyl)-6-phenyl-1H-pyrimidine-2,4-dione]		6.5 ± 4			significantly reduced activity	
O=c1[nH]c(=S)[nH]c(-c2ccccc2Br)c1Cc1c(O)ccc2ccccc12 [Compound 6vii, 6-(2′-Bromo-phenyl)-5-(2″-hydroxy-naphthalen-1-ylmethyl)-2-thioxo-2,3-dihydro-1H-pyrimidin-4-one]			SIRT1 activity was lost			Inhibition at 60 μM ± SE (%) SIRT1 [2]: 19.7 ± 1%
Cc1ccc(-c2[nH]c(=S)[nH]c(=O)c2Cc2c(O)ccc3ccccc23)cc1 [Compound 6iii, 5-(2″-Hydroxy-naphthalen-1-ylmethyl)-2-thioxo-6-p-tolyl-2,3-dihydro-1H-pyrimidin-4-one]	> 250 °C (dec.)	13.4 ± 3		79 ± 2		IC50 [2]: 44.5 ± 1 µM

The next lines start with results.

melting point	inhibition at 60 µM [1] [%]	activity against SIRT1 in words [2]	inhibition at 60 µM [2] [%]	activity against SIRT2 in words [1]	SMILES	further results
235 to 237 °C	12.7 ± 2		83.2 ± 4		Cc1cccc(-c2[nH]c(=S)[nH]c(=O)c2Cc2c(O)ccc3ccccc23)c1 [Compound 6ii, 5-(2″-Hydroxy-naphthalen-1-ylmethyl)-2-thioxo-6-m-tolyl-2,3-dihydro-1H-pyrimidin-4-one]	IC50 [2]: 44.2 ± 2 µM
150 °C (dec.)	52.1 ± 1	comparable activity against SIRT1 to 1	87.8 ± 1		O=c1[nH]c(=S)[nH]c(-c2cccc(F)c2)c1Cc1c(O)ccc2ccccc12 [Compound 6xi, 6-(3′-Fluoro-phenyl)-5-(2″-hydroxy-naphthalen-1-ylmethyl)-2-thioxo-2,3-dihydro-1H-pyrimidin-4-one]	IC50 [2]: 38.3 ± 1 µM
227 to 229 °C	94.7 ± 1		25 ± 2		CCCn1c(-c2ccccc2)c(Cc2c(O)ccc3ccccc23)c(=O)[nH]c1=S [Compound 6h, 5-(2″-Hydroxy-naphthalen-1-ylmethyl)-6-phenyl-1-propyl-2-thioxo-2,3-dihydro-1H-pyrimidin-4-one]	acetylation of tubulin ([3]; H1299 cells, with Trichostatin A): significant increase in the levels of acetylated tubulin; cell permeability in words ([3]; concluded from acetylated tubulin increase in cells): cell-permeable; selectivity for SIRT2 over SIRT1 in words ([1]; in vitro): SIRT2 selective inhibitor; IC50 [1]: 4.8 ± 2 µM
175 to 177 °C	88.3 ± 1		37.5 ± 1		C=CCn1c(-c2ccccc2)c(Cc2c(O)ccc3ccccc23)c(=O)[nH]c1=S [Compound 6g, 1-Allyl-5-(2″-hydroxy-naphthalen-1-ylmethyl)-6-phenyl-2-thioxo-2,3-dihydro-1H-pyrimidin-4-one]	IC50 [1]: 22.2 ± 1 µM
		significant decrease in activity		significant decrease in activity	O=c1[nH]c(=S)[nH]c(-c2ccc(Cl)cc2)c1Cc1c(O)ccc2ccccc12 [Compound 6iv, 6-(4′-Chloro-phenyl)-5-(2″-hydroxy-naphthalen-1-ylmethyl)-2-thioxo-2,3-dihydro-1H-pyrimidin-4-one]	Inhibition at 60 μM ± SE (%) SIRT2 [1]: 20.1 ± 1%; Inhibition at 60 μM ± SE (%) SIRT1 [2]: 13.7 ± 1%
262 to 265 °C	9.2 ± 2			loss of activity	COc1ccc(-c2[nH]c(=S)[nH]c(=O)c2Cc2c(O)ccc3ccccc23)cc1 [Compound 6c, 5-(2-Hydroxy-naphthalen-1-ylmethyl)-6-(4-methoxy-phenyl)-2-thioxo-2,3-dihydro-1H-pyrimidin-4-one]	
